Converted amounts (≈) assume the structure as drawn. Like-named read-outs stand apart in the source and are kept apart here.
How the values were obtained:
[1] = target: α-glucosidase; set-up: method as in PMID 25735900; conditions: cited from earlier work; for IC50: purified from S. japonicas, read-out: IC50 against α-glucosidase; for α-glucosidase inhibitory activity: purified from internal organs of S. japonicus
[2] = target: α-glucosidase; set-up: method as in PMID 22416705; conditions: cited from earlier work; for IC50 against α-glucosidase: fatty acids from body wall of S. japonicus; for α-glucosidase inhibitory activity: purified from body wall of S. japonicus
[3] = target: α-glucosidase; set-up: method as in PMID 23355366; conditions: read-out: IC50 against α-glucosidase; cited from earlier work
[4] = target: α-glucosidase from Saccharomyces cerevisiae; test: α-glucosidase inhibition assay (PNPG substrate); type: biochemical; conditions: commercial pure fatty acids; acarbose positive control; three repeats; read-out: IC50 against α-glucosidase
Method: The reference standard for the GC-MS analysis was a Supelco 37 Component FAME mix from Sigma Aldrich (Sigma-Aldrich Chemie GmbH, Steinheim, Germany). Pure fatty acids, including palmitoleic acid (≥98.5%), arachidonic acid, and eicosapentaenoic acid (≥99%), were purchased from Sigma Aldrich (Sigma-Aldrich Chemie GmbH, Steinheim, Germany).
The α-glucosidase inhibition was assessed using the method described by Su et al. (2013 and Trinh et al. (2016), with a slight modification. In total, 100 μL of the α-glucosidase enzyme solution from Saccharomyces cerevisiae (0.2 U/mL in a 0.1 M phosphate buffer at pH 6.8) and 50 μL of the sample dissolved in the phosphate buffer containing 6% DMSO 0.25–20 mg/mL), and were incubated in a transparent 96-well plate at 37 °C for 15 min. Next, 50 μL of PNPG (5 mM in a 0.1 m phosphate buffer) was added. The PNPG was hydrolyzed to release p-nitrophenyl (PNP), and this process was monitored at 405 nm for 30 min at 37 °C, with a BioTek Eon microplate reader (Winooski, VT, USA)) using the Gen5 version 2.06 software. […] The IC50 values were calculated with GraphPad Prism 6 software (GraphPad Software Inc, La Jolla, CA, USA). The IC50 values were subjected to one-way analysis of variance (ANOVA) and the Tukey post hoc test, using GraphPad Prism 6 software to assess any significant differences among the treatments. P-values < 0.05 were considered significant.

[5] = solubility in NMR solvent; conditions: noticed when preparing the compounds for NMR analysis
[6] = system: α-glucosidase; set-up: method as in PMID 26932154; conditions: cited from earlier work
[7] = system: diabetic mice; set-up: method as in PMID 26932154; conditions: treatment of diabetic mice; cited from earlier work

SMILES: CCCCCC/C=C\CCCCCCCC(=O)OCC(O)COC(=O)CCCCCCC/C=C\CCCCCC [1,3-Dipalmitolein]
- IC50 [1]: 4.45 µM
- α-glucosidase inhibitory activity [1]: strong

SMILES: CCCCCCC/C=C\C/C=C\CCCCCC(=O)O [7(Z),10(Z)-octadecadienoic acid]
- IC50 against α-glucosidase [2]: 0.49 ± 0.05 µg/mL (≈ 1.75 µM)
- α-glucosidase inhibitory activity [2]: strong

SMILES: CCCCCCCCCC/C=C\CCCCCC(=O)O [7(Z)-octadecenoic acid]
- IC50 against α-glucosidase [2]: 0.51 ± 0.02 µg/mL (≈ 1.81 µM)
- α-glucosidase inhibitory activity [2]: strong

SMILES: CCCCC/C=C\C/C=C\C/C=C\C/C=C\CCCC(=O)O [Arachidonic acid]
- IC50 [3]: 211 ± 2 µM
- IC50 [4]: 596 ± 44 µM

SMILES: CC/C=C\C/C=C\C/C=C\C/C=C\C/C=C\CCCC(=O)O [Eicosapentaenoic acid]
- IC50 [4]: 541 ± 39 µM

SMILES: CCCCCC/C=C\CCCCCCCC(=O)O [Palmitoleic acid]
- IC50 [3]: 265 ± 2 µM
- IC50 [4]: 320 ± 32 µM

SMILES: CCCCCCCC/C=C\CCCCCCCC(=O)O [cis-9-octadecenoic acid]
- IC50 [1]: 14.9 µM
- α-glucosidase inhibitory activity [1]: strong

SMILES: CC1OC(OC2C(OC3CCC4(C)C5=CC(O)C67C(=O)OC(C)(C8CCC(C)(C)O8)C6(O)CCC7(C)C5CCC4C3(C)C)OCC(O)C2O)C(O)C(O)C1O (stereo not drawn) [compound 1, desholothurin B]
- solubility in methanol-d4 [5]: soluble

SMILES: COC1C(O)C(CO)OC(OC2C(O)C(CO)OC(OC3C(C)OC(OC4C(OC5CCC6(C)C7=CC(O)C89C(=O)OC(C)(CCCC(C)C)C8(O)CCC9(C)C7CCC6C5(C)C)OCC(OS(=O)(=O)O)C4O)C(O)C3O)C2O)C1O.[Na+] (stereo not drawn) [echinoside A]
- α-glucosidase activity [6]: inhibited
- postprandial blood glucose levels [7]: suppressed postprandial blood glucose levels

SMILES: CO[C@@H]1[C@@H](O)[C@H](O[C@@H]2[C@@H](O)[C@H](O[C@H]3[C@H](O)[C@@H](O)[C@H](O[C@H]4[C@H](O[C@H]5CC[C@]6(C)C7=C[C@H](O)[C@@]89C(=O)O[C@@](C)(C%10CCC(C)(C)O%10)[C@@]8(O)CC[C@@]9(C)[C@@H]7CC[C@H]6C5(C)C)OC[C@@H](OS(=O)(=O)O)[C@@H]4O)O[C@@H]3C)O[C@H](CO)[C@H]2O)O[C@H](CO)[C@H]1O (stereo partly drawn) [holothurin A]
- α-glucosidase activity [6]: inhibited
- postprandial blood glucose levels [7]: suppressed postprandial blood glucose levels
